For series [1], the system named is B16 mouse melanoma cells. Kind of series: Tumor growth inhibition in mice subcutaneously inoculated with B16 mouse melanoma cells. The class given is in vivo, mouse (BDF1 female). To be noted: 0.1 mg/kg i.v. days 1, 5, 9; maximum during 20 days. Summed up: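 Female BDF1 mice (6 weeks, n=6/group) bearing subcutaneous B16 melanoma. Tumor volume [(length×width×height)/2] measured on days 8, 12, 16 and 20 after implantation; growth inhibition rate computed from treated vs control tumor volumes.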

Series [2] deals with mouse splenic lymphocyte. Kind of series: In vitro mouse splenic lymphocyte-proliferation-stimulating effect (3H-TdR uptake). To be noted: 2 days, 2880 min. The class given is cell-based, mouse (BDF1 female). The method in brief: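 Spleen cells from 6-week-old female BDF1 mice, 2×10^6 cells/ml in 10% FCS RPMI 1640, cultured with vehicle or sample 2 days at 37° C, 5% CO2. ^3H-TdR (0.5 μCi/well) uptake over 6 h by scintillation counting, expressed as % of vehicle.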

For series [3], the system named is mixed lymphocyte culture reaction (spleen cells of C57BL/6 and BALB/C mice). Kind of series: Mixed lymphocyte culture reaction (MLR). The class given is cell-based, mouse (C57BL/6 stimulator, BALB/C responder). The settings on record: 42 hours, 2520 min. The method in brief:
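Mouse one-way MLR: mitomycin C-treated (50 μg/ml, 30 min) C57BL/6 spleen cells stimulated BALB/C responder spleen cells, 2×10^6 cells/ml each, cultured 42 h at 37 °C with sample. ³H-thymidine (0.5 μCi/well) incorporation over a further 8 h gave MLR activating rate as % of vehicle uptake.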

The subject of series [4] is mouse bone marrow cells. Kind of series: In vitro mouse bone marrow cell-proliferation-promoting effect (3H-TdR uptake). Format: cell-based, mouse (BDF1 female). To be noted: 4 days, 5760 min. The method in brief:
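Femoral bone marrow monocytes from 6-week female BDF1 mice (Lympholite M fraction, 1×10^6 cells/ml in 10% FCS RPMI 1640) cultured with sample for 4 days at 37 °C, 5% CO2. 3H-TdR (0.5 μCi/well) added for final 6 h; uptake ratio versus vehicle reported as activation rate.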

Series [5] concerns lethally irradiated mice. Kind of series: Radioprotective effect: life-span prolongation of lethally irradiated mice. The class given is in vivo, mouse (BDF1 female). To be noted: 0.1 mg/kg i.v. days 0, 4, 8, 9 Gy X-ray, groups of 10, 0.1 mg/kg. Summed up: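 Female BDF1 mice (6 weeks, groups of 10) given 9 Gy X-ray on day 0, then compound 0.1 mg/kg intravenously by tail vein on days 0, 4 and 8. Survival followed for 40 days.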

A short description of series [6]: Solubility in water in aqueous Polysorbate 20 solutions. Format: physicochemical. The settings on record: vs Compound b. On the procedure:
Compounds a and b comprising a monosaccharide as a constituent sugar which are disclosed in WO 93/05055 were synthesized as above. A 1 mg of each of the present compounds 4, 31 and 33 and Compound a and b was dissolved in 1 ml of an aqueous Polysorbate 20 solution in a variety of concentrations in order to observe visually the property.

Series [7] concerns P388 mouse leukemia cells. Kind of series: Life-span-prolonging (anti-tumor) effect on mice subcutaneously inoculated with P388 mouse leukemia cells. The class given is in vivo, mouse (CDF1 female). The settings on record: 0.1 mg/kg i.v. on days 1, 5 and 9. Summed up: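 CDF1 female mice (6 weeks), 5 per group, inoculated subcutaneously with P388 leukemia cells; life-span prolongation assessed. Lentinan and picibanil given intravenously on days 1, 3, 5, 7 and 9 after implantation; sizofilan given subcutaneously on days 1 through 9. Statistics by Mann-Whitney test.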

Structures are written as SMILES.

For `CCCCCCCCCCCCCCCCCCCCCC[C@@H](O)C(=O)N[C@@H](CO[C@H]1O[C@H](CO)[C@H](O)[C@H](O[C@H]2O[C@H](CO)[C@H](O)[C@H](O)[C@H]2NC(C)=O)[C@H]1O[C@H]1O[C@H](CO)[C@@H](O)[C@H](O)[C@H]1O)[C@H](O)[C@H](O)CCCCCCCCCCCCCC` [Compound 4, O-(N-acetyl-2-amino-2-deoxy-α-D-galactopyranosyl)-(1→3)-O-[α-D-glucopyranosyl-(1→2)]-O-α-D-galactopyranosyl-(1→1)-(2S,3S,4R)-2-amino-N-[(R)-2-hydroxytetracosanoyl]-1,3,4-octadecanetriol], the “Maximum tumor growth inhibiting rate, TGIR (%)” value in series [1] was found to be 84.0%. The “Uptake of 3H-TdR (% of control), splenic lymphocytes” value is given as 792 % of control in series [2] (10^0 μg/ml), 692 % of control in series [2] (10^-1 μg/ml), 395 % of control in series [2] (10^-2 μg/ml) and 325 % of control in series [2] (10^-3 μg/ml). Further, the “MLR activating rate (%)” value is reported as 209% in series [3] (1 × 10^0 μg/ml) and 163% in series [3] (1 × 10^-1 μg/ml). The “Uptake of 3H-TdR (% of control), bone marrow cells” value in series [4] (10^-1 μg/ml) is recorded as 512 % of control; in series [4] (10^-2 μg/ml), 163 % of control. For the same compound, the “Number of surviving mice” value in series [5] (day 10) was found to be 10 mice; in series [5] (day 15), 8 mice; in series [5] (day 20) it was 8 mice; in series [5] (day 25), 6 mice; in series [5] (day 30) it was 5 mice; in series [5] (day 35), 5 mice. Further, in series [5] (day 40), the “Number of surviving mice” value is recorded as 5 mice. Moreover, the “amount of Polysorbate 20 required for dissolving, relative to that required for Compound b” value in series [6] is 1/100. For the same compound, the “Survival days ave. ± s. d.” value in series [7] (all marked ** (p < 0.01)) worked out at 15.2 ± 0.5 days. The “T/C (%)” value in series [7] (survival vs vehicle) came to 119%.

The record behind these values is US5780441A, “Sphingoglycolipid compounds and therapeutic uses thereof” (Kirin Beer Kabushiki Kaisha, priority 1993, dated 1998).
